Values quoted from earlier work as cited in publication PMC9322451 (Clinical Pharmacology in Drug Development, 2022).

Design: method as in PMID 29484635
Conditions: single 35‐mg dose following a high‐fat breakfast; cited from earlier work

## Cn1c(=O)oc2ccc(-c3ccc(C[C@@H](C#N)NC(=O)[C@@H]4CNCCCO4)cc3)cc21 [Brensocatib]
  Tmax: 3.3 h
  decrease of AUC with food: 9%
  decrease of Cmax with food: 36%
